{"source": "patent EP4702986A1", "about": "“POLYPEPTIDE AND USE THEREOF” (Biocells (Beijing) Biotech Co., Ltd., priority 2023, dated 2024)", "key": {"[1]": {"tested_on": "BDNF", "test": "BDNF protein expression in infarcted brain tissue, mouse model of tMCAO (ELISA)", "type": "in vivo, C57/6J mice", "experimental": "Fifty-one male C57/6J mice, aged 10-12 weeks, weighing 25-30g, were housed for at least 2 days prior to the experiment to adapt to the environment (SPF Biotech). A mouse model of tMCAO was established. The mice were anesthetized with isoflurane. Their body temperature was controlled by a thermostatic blanket and monitored and maintained at 37±0.5°C. A middle incision was made in the skin on the mouse skull, the skin was pulled outward, and a bendable microneedle tip was fixed to the surface of the left parietal bone of the mouse skull. A middle incision on the neck was made to separate the right common carotid artery (CCA), external carotid artery (ECA) and internal carotid artery (ICA). […] To ensure a sustained and successful occlusion of the middle cerebral artery, we monitored local cerebral blood flow of all stroke animals with a laser speckle flowmeter (generally, the blood flow can be reduced by 40-60% after stabilized). […]\nSuccessfully modeled C57 tMCAO mice were randomly assigned into three groups: a normal saline group, a 30µg/Kg BX229-Na administration group, and a 100µg/Kg BX229-Na administration group. […] Changes in protein markers VEGF-A and BDNF in each experimental group were detected by ELISA. […]"}, "[2]": {"tested_on": "VEGF-A", "test": "VEGF-A protein expression in infarcted brain tissue of tMCAO mice (ELISA)", "type": "in vivo, C57/6J mice", "conditions": "for VEGF-A: 3 times s.c. (D1, D3, D6), brain tissue after D14", "experimental": "(§1) Fifty-one male C57/6J mice, aged 10-12 weeks, weighing 25-30g, were housed for at least 2 days prior to the experiment to adapt to the environment (SPF Biotech). A mouse model of tMCAO was established. The mice were anesthetized with isoflurane. Their body temperature was controlled by a thermostatic blanket and monitored and maintained at 37±0.5°C. A middle incision was made in the skin on the mouse skull, the skin was pulled outward, and a bendable microneedle tip was fixed to the surface of the left parietal bone of the mouse skull. A middle incision on the neck was made to separate the right common carotid artery (CCA), external carotid artery (ECA) and internal carotid artery (ICA). According to the method of Longa (Longa et al., 1989), a silicone rubber-coated suture (RWD Life Science, suture end diameter: 0.22 mm-0.23 mm, MSMC23B120PK50) was introduced through an external carotid artery incision surgery and was slowly advanced through the internal carotid artery towards the origin of the middle cerebral artery. To ensure a sustained and successful occlusion of the middle cerebral artery, we monitored local cerebral blood flow of all stroke animals with a laser speckle flowmeter (generally, the blood flow can be reduced by 40-60% after stabilized). The suture was removed 45 min after the insertion for modeling, and the incision was sutured. Afterward, 1 mL of 37°C warm saline was injected subcutaneously, and the mice were placed on a heating pad until recovery. To alleviate pain, the mice were injected subcutaneously with Tilidine after awakening from anesthesia.\n(§2) Successfully modeled C57 tMCAO mice were randomly assigned into three groups: a normal saline group, a 30µg/Kg BX229-Na administration group, and a 100µg/Kg BX229-Na administration group. Each group was administered once subcutaneously in the neck 4.5 hours after occlusion (D1), and was administered once more at the same sites and at the same time points on D3 and D6. A sham group included 6 animals. 2 mL/kg was administrated subcutaneously in the neck. Garcia JH scoring was made on D7 and D14 after administration. After the completion of the scoring on D14, the mice were euthanized and harvested for infarcted brain tissues, to extract total proteins. Changes in protein markers VEGF-A and BDNF in each experimental group were detected by ELISA. Table 19: Experimental Grouping and Dosing Regimen"}, "[3]": {"tested_on": "BDNF", "test": "BDNF protein expression in infarcted brain tissue of tMCAO mice (ELISA)", "type": "in vivo, C57/6J mice", "conditions": "for BDNF: 3 times (D1, D3, D6), infarcted brain tissue after D14; for expression level of BDNF protein compared with the normal saline group: tMCAO mice", "experimental": "as §1, §2"}, "[4]": {"tested_on": "mouse model of dMACO", "test": "Cerebral blood flow perfusion in mouse model of dMACO (laser speckle flowmeter)", "type": "in vivo, C57 BL/6 mice", "description": "Eight-week-old male C57 BL/6 mice were used and acclimated for at least 3 days. On the day of experiment, the mice were anesthetized with isoflurane, and an incision of approximately 2 cm in length was made in the middle of the […]. The mice were placed under a laser speckle flowmeter to capture a video of blood flow on both sides of the brain as images of pre-ischemic blood flow perfusion. Subsequently, a skull incision (3 mm×1.5 mm) was made at the right rear of the intersection of the sagittal suture and the coronal suture with a skull drill. The distal end of the right middle cerebral artery was located under a microscope, and a No.11 suture was used to ligate the middle artery. Meanwhile, the right common carotid artery was separated and ligated. A video of blood flow on both sides of the brain was captured again as images of post-ischemic blood flow perfusion. The scalp was sutured, and the animals were rewarmed in a rewarming box. Successfully modeled dMACO mice were randomly assigned to single-dose BX-34 groups of 7, 14, and 42 µg/Kg, single-dose IRL1620 groups of 5 and 10 µg/Kg, a three-dose IRL1620 group of 10 µg/Kg, and a normal saline control group. The single-dose groups were administered via tail vein 1 h after modeling, while the three-dose group was administered via tail vein at 1 hour, 3 hours, and 5 hours after modeling. A video of blood flow on both sides of the brain of each animal was captured again at 24 hours, 48 hours, and D7 after administration. During data analysis, the ROI was introduced or the area requiring blood flow calculation was selected. The average blood flow of the selected area was calculated by double-clicking on the blood flow image. Ratios of the average blood flow perfusions on right brain after modeling, and 24 hours, 48 hours and D7 after administration, to the average blood flow on right brain before modeling were used for statistical analysis of each group."}, "[5]": {"tested_on": "male SD rats", "test": "in vivo", "conditions": "one animal per row, observed 24 hours", "method_in_brief": "(§3)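 Male SD rats (200-230 g) given single tail-vein injections, descending doses from 480 µg/Kg to 30 µg/Kg. Toxic response, mortality and time of death recorded; acute toxicity level preliminarily set from doses without mortality.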"}, "[6]": {"test": "in vivo", "conditions": "male, SD, rat, in vivo, iv", "method_in_brief": "as §3"}, "[7]": {"conditions": "background statement; cited from earlier work"}, "[8]": {"conditions": "intravenous (tail vein) 30 µg/Kg"}, "[9]": {"conditions": "intravenous (tail vein) 60 µg/Kg"}, "[10]": {"conditions": "intravenous (tail vein) 120 µg/Kg"}}, "note": "Entries after “also recorded” stand apart in the source; their conditions may differ. Numbered stars: 1 amine (or outer) side, 2 acyl side, 3 side chain; on linkers, the order of the positions; unused ones are H or OH. Side chains are listed from the residue outwards. Peptide text beside a SMILES is read from it. * marks the point of attachment. C18 diacid = O=C(O)CCCCCCCCCCCCCCCCC(=O)*; γGlu = O=C(O)[C@H](CCC(=O)[*:2])N[*:1]; Fumaroyl = O=C(O)/C=C/C(=O)*; Suc = O=C(CCC(=O)[*:2])[*:1]; Lauroyl = CCCCCCCCCCCC(=O)*; AEEA = NCCOCCOCC(=O)O", "data": [{"molecule": "CCCCCCCCCCCC(=O)N[C@@H](CCC(=O)NCCOCCOCC(=O)NCCCC[C@H](NC(=O)[C@H](Cc1c[nH]cn1)NC(=O)[C@H](C)NC(=O)[C@H](Cc1ccccc1)NC(=O)[C@H](Cc1ccc(O)cc1)NC(=O)[C@@H](NC(=O)[C@H](C)NC(=O)[C@H](CCC(=O)O)NC(=O)[C@H](CCC(=O)O)NC(=O)[C@H](CC(=O)O)NC(=O)/C=C/C(=O)O)C(C)C)C(=O)N[C@@H](CC(=O)O)C(=O)N[C@H](C(=O)N[C@H](C(=O)N[C@@H](Cc1c[nH]c2ccccc12)C(=O)O)[C@@H](C)CC)C(C)C)C(=O)O", "note": "[BX229-Na] (Fumaroyl-DEEAVYFAHK([AEEA-γGlu-Lauroyl])DVIW-OH)", "values": [{"measurement": "expression level of BDNF protein compared with the normal saline group", "setting": "[1]; 30µg/Kg three-dose group", "value": "higher than that in the normal saline group"}, {"measurement": "expression level of BDNF protein compared with the normal saline group", "setting": "[1]; 100µg/Kg three-dose group", "value": "higher than that in the normal saline group"}, {"measurement": "expression level of VEGF-A protein compared with the normal saline group", "setting": "[2]; 30µg/Kg three-dose group", "value": "higher"}, {"measurement": "VEGF-A", "setting": "[2]; 30 µg/Kg", "value": "441 ± 102", "unit": "pg/mL"}, {"measurement": "expression level of VEGF-A protein compared with the normal saline group", "setting": "[2]; 100µg/Kg three-dose group", "value": "significantly different"}, {"measurement": "VEGF-A", "setting": "[2]; 100 µg/Kg", "value": "562 ± 56", "unit": "pg/mL"}, {"measurement": "BDNF", "setting": "[3]; 30 µg/Kg subcutaneously", "value": "1103 ± 582", "unit": "pg/mL"}, {"measurement": "BDNF", "setting": "[3]; 100 µg/Kg subcutaneously", "value": "1334 ± 665", "unit": "pg/mL"}, {"measurement": "expression level of BDNF protein compared with the normal saline group", "setting": "[3]; 30µg/Kg three-dose group", "value": "higher"}, {"measurement": "expression level of BDNF protein compared with the normal saline group", "setting": "[3]; 100µg/Kg three-dose group", "value": "higher"}]}, {"molecule": "CC[C@H](C)[C@H](NC(=O)[C@H](CC(=O)O)NC(=O)[C@H](CCCCNC(=O)COCCOCCNC(=O)COCCOCCNC(=O)CC[C@H](NC(=O)CCCCCCCCCCCCCCCCC(=O)O)C(=O)O)NC(=O)[C@H](Cc1c[nH]cn1)NC(=O)[C@H](C)NC(=O)[C@H](Cc1ccccc1)NC(=O)[C@H](Cc1ccc(O)cc1)NC(=O)[C@@H](NC(=O)[C@H](C)NC(=O)[C@H](CCC(=O)O)NC(=O)[C@H](CCC(=O)O)NC(=O)[C@H](CC(=O)O)NC(=O)/C=C/C(=O)O)C(C)C)C(=O)N[C@H](C(=O)N[C@@H](Cc1c[nH]c2ccccc12)C(=O)O)[C@@H](C)CC", "note": "[BX-34] (Fumaroyl-DEEAVYFAHK([AEEA-AEEA-γGlu-C18 diacid])DIIW-OH)", "values": [{"measurement": "cerebral blood flow perfusion amount compared to the normal saline group", "setting": "[4]; dMCAO mice, single dose of 42 µg/kg via tail vein, 24 hours, 48 hours and D7 after administration", "value": "significantly increased"}]}, {"molecule": "CCCCCCCCCCCC(=O)N[C@@H](CCC(=O)NCCOCCOCC(=O)NCCCC[C@H](NC(=O)[C@H](Cc1c[nH]cn1)NC(=O)[C@H](C)NC(=O)[C@H](Cc1ccccc1)NC(=O)[C@H](Cc1ccc(O)cc1)NC(=O)[C@@H](NC(=O)[C@H](C)NC(=O)[C@H](CCC(=O)O)NC(=O)[C@H](CCC(=O)O)NC(=O)[C@H](CC(=O)O)NC(=O)/C=C/C(=O)O)C(C)C)C(=O)N[C@@H](CC(=O)O)C(=O)N[C@H](C(=O)N[C@H](C(=O)N[C@@H](Cc1c[nH]c2ccccc12)C(=O)O)[C@@H](C)CC)[C@@H](C)CC)C(=O)O", "note": "[BX-225] (Fumaroyl-DEEAVYFAHK([AEEA-γGlu-Lauroyl])DIIW-OH)", "values": [{"measurement": "Observations of Animal Status", "setting": "[5]; [8]", "value": "No obvious abnormalities observed within 24 hours"}, {"measurement": "Observations of Animal Status", "setting": "[5]; [9]", "value": "Lay still and showed no willingness to move at 7 minutes; became active at 10 minutes; signs of pain were observed in the animal through pupil observation; no pain at 23 minutes; also recorded: Lay still and showed no willingness to move at 7 minutes; became active at 10 minutes; signs of pain were observed in the animal through pupil observation; developed rapid breathing at 35 minutes; died at 70 minutes"}, {"measurement": "Observations of Animal Status", "setting": "[5]; [10]", "value": "Breathing became slightly faster at 2 minutes, showed no willingness to move, had slow reactions, and breathing speeded up at 25 minutes; the symptoms basically eased at 1.5 hours; also recorded: Showed no willingness to move, had slow reactions, and breathing became slightly faster at 10 minutes; the symptoms lasted for nearly 1 hour; the symptoms basically eased at 1 hour and 10 minutes; also recorded: Developed abdominal breathing and lay still at 27 minutes; died of difficulty in breathing at 40 minutes; also recorded: Developed abdominal breathing and lay still at 25 minutes; died of difficulty in breathing at 32 minutes"}, {"measurement": "Observations of Animal Status", "setting": "[5]; intravenous (tail vein) 240 µg/Kg", "value": "Developed rapid breathing at 4 minutes, collapsed at 5 minutes, eyes turned dull at 7 minutes; died at 12 minutes"}, {"measurement": "MTD at 24 h", "setting": "[6]", "value": 0.03, "unit": "mg/kg"}]}, {"molecule": "CC[C@H](C)[C@H](NC(=O)[C@H](CC(=O)O)NC(=O)[C@H](CC(C)C)NC(=O)[C@H](Cc1c[nH]cn1)NC(=O)[C@H](C)NC(=O)[C@H](Cc1ccccc1)NC(=O)[C@H](Cc1ccc(O)cc1)NC(=O)[C@@H](NC(=O)[C@H](C)NC(=O)[C@H](CCC(=O)O)NC(=O)[C@H](CCC(=O)O)NC(=O)[C@H](CC(=O)O)NC(=O)CCC(=O)O)C(C)C)C(=O)N[C@H](C(=O)N[C@@H](Cc1c[nH]c2ccccc12)C(=O)O)[C@@H](C)CC", "note": "[IRL1620, reference compound] (Suc-DEEAVYFAHLDIIW-OH)", "values": [{"measurement": "Observations of Animal Status", "setting": "[5]; [8]", "value": "Developed rapid breathing at 13 minutes, showed no willingness to move at 30 minutes; recovered at 1.5 hours; also recorded: Developed rapid breathing at 15 minutes, showed no willingness to move at 25 minutes; recovered at 1.5 hours; also recorded: Lay still at 25 minutes, showed no willingness to move at 1.5 hours; found dead the next morning (estimated to have died during the night)"}, {"measurement": "Observations of Animal Status", "setting": "[5]; [9]", "value": "Developed rapid breathing at 3 minutes; died at 8 minutes"}, {"measurement": "Observations of Animal Status", "setting": "[5]; [10]", "value": "Developed rapid breathing and the body turned purple at 5 minutes; died at 9 minutes"}, {"measurement": "MTD at 24 h", "setting": "[6]", "value": 0.03, "unit": "mg/kg"}, {"measurement": "half-life", "setting": "[7]", "value": "less than 2 minutes"}, {"measurement": "cerebral blood flow perfusion amount compared to the normal saline group", "setting": "[4]; dMCAO mice, single dose of 5 µg/kg via tail vein", "value": "no significant differences"}, {"measurement": "cerebral blood flow perfusion amount compared to the normal saline group", "setting": "[4]; mouse, in vivo", "value": "no significant differences"}]}]}
